This is an account of results in PubChem BioAssay (NCI).

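Following 48 hours of exposure in 96-well plates, responses at five concentrations were used to interpolate endpoints linearly. The concentration for full growth arrest is given as TGI.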 Where a SMILES comes first, the peptide text is derived from it. The star is where a group is joined. Boc = CC(C)(C)OC(=O)* A value given as a limit tells only on which side of the number the result lay.

What all share (experiment): DTP human tumour cell line panel, 48 h
The test system of test [1] is A498 renal.
The test system of test [2] is HCT-15 colon.
The test system of test [3] is IGROV1 ovarian.
For test [4], the system named is K-562 leukemia.
Test [5] has as its system MALME-3M melanoma.
The test system of test [6] is MOLT-4 leukemia.
The test system of test [7] is NCI-H460 lung.
The subject of test [8] is OVCAR-3 ovarian.
The test system of test [9] is SK-MEL-28 melanoma.
The subject of test [10] is SK-OV-3 ovarian.

For orientation: TGI means the concentration at which net growth stops. The low end stands for more potent growth arrest, the high end for less potent growth arrest. `COc1ccc(CC(O)CN2CCOCC2)cc1` (configuration not stated): the TGI in test [1], in test [2], in test [3], in test [4], in test [5] and in [6] was greater than 100 µM in each case. In addition, the total growth inhibition concentration (TGI) in test [7], in test [8] and in [9] was greater than 100 µM in each case.

As for `COc1ccc2nc3cc(Cl)ccc3c(NCCCNCCCNc3c4ccc(Cl)cc4nc4ccc(OC)cc34)c2c1`, the total growth inhibition concentration (TGI) in test [1] is 0.463 µM; in test [2], 1.06 µM; in [4], 15.2 µM; in test [5], 1.22 µM; in test [6] it was greater than 100 µM; in [7] it was 0.0131 µM. The TGI came out at 0.61 µM in [8] and 0.384 µM in test [10].

Consider `CCCn1c(CN(Cc2nc3ccccc3n2CCC)Cc2nc3ccccc3n2CCC)nc2ccccc21`, for which the TGI in test [1] is greater than 64.1 µM; in test [2] it was greater than 43.4 µM; in [3], 16.7 µM; in [4], 32.1 µM; in [5], 23.3 µM; in [6], 40.8 µM. In addition, the total growth inhibition concentration (TGI) is 18.5 µM in [7], greater than 30.4 µM in test [8], 38.1 µM in [9] and greater than 100 µM in test [10].

On to `CC(C)(C)OC(=O)NCC(=O)NCC(=O)NCC(=O)NCC(=O)O` (Boc-GGGG-OH), for which the total growth inhibition concentration (TGI) in test [1], in test [2], in test [3], in [4], in test [5] and in [6] was greater than 100 µM throughout. Further, the TGI in test [7], in [8], in [9] and in [10] was greater than 100 µM in each case.

With `COc1nc(C#CCC(C)O)nc(OC)n1` (configuration not stated), the TGI in [1] is 77.1 µM; in test [2], 45.6 µM; in test [3], 42.3 µM; in [4], greater than 100 µM; in test [5], 25.6 µM; in test [6] it was greater than 100 µM. Moreover, the TGI in test [7] was greater than 100 µM; in [8], 47.9 µM; in test [9], greater than 100 µM; in test [10] it was greater than 100 µM.

Regarding `C=C[C@@H]1C(CO)=CCC2[C@H]1CCC1C(C)(C)C(=O)CC[C@]21C` (some centres not stated), the total growth inhibition concentration (TGI) in test [1], in test [2], in [3], in test [4], in test [5] and in [6] was greater than 100 µM in each case. For the same compound, the TGI in test [7], in test [8], in [9] and in test [10] was greater than 100 µM in each case.

In the case of `Brc1cccc(Nc2nc(-c3cccs3)nc3ccc(Br)cc23)c1`, the TGI in [1] is greater than 100 µM; in test [2], greater than 100 µM; in test [3], greater than 100 µM; in test [4], greater than 100 µM; in [5], 65.2 µM; in test [6], greater than 100 µM. Also, the TGI is greater than 100 µM in [7], 82.1 µM in [8], greater than 100 µM in test [9] and greater than 100 µM in [10].

As for `O=c1cc(N=P(c2ccccc2)(c2ccccc2)c2ccccc2)n(-c2ccccc2)c(=O)n1-c1ccccc1`, the TGI is 21.1 µM in test [1]; greater than 100 µM in test [2]; 58.8 µM in [3]; 23.9 µM in test [4]; 33.5 µM in test [5]; 22 µM in [6]. Further, the TGI in test [7] is 22 µM; in test [8], 32.3 µM; in test [9], greater than 100 µM; in test [10] it was 76.1 µM.

Regarding `CO[C@]12CC(=O)C3(C(C[C@H]4CC5CC=C6C[C@@H](OC(C)=O)CC[C@]6(OC(C)=O)C5C[C@@]43C)C1)C1C[C@H]3[C@@H]4CC=C5C[C@@H](OC(C)=O)CC[C@]5(OC(C)=O)[C@H]4CC[C@]3(C)C12` (some centres not stated), the TGI was 66.1 µM in [1]; greater than 100 µM in test [2]; 42.8 µM in test [3]; greater than 100 µM in test [4]; 35 µM in test [5]; 63.3 µM in test [6]. For the same compound, the TGI in test [7] was 47.8 µM; in test [8], 56.4 µM; in [9] it was greater than 100 µM; in test [10], greater than 100 µM.

Consider `CCOC(=O)c1c(-c2ccc(OC)cc2)c(C#N)c(=S)n(C2OC(COC(C)=O)C(OC(C)=O)C(OC(C)=O)C2OC(C)=O)c1C` (configuration not stated), for which the TGI in test [1], in test [2], in test [3], in test [4], in test [5] and in test [6] was greater than 100 µM in each case. For the same compound, the TGI in test [7], in test [8], in test [9] and in test [10] was greater than 100 µM each time.

`CN(C)CCCN1C(=S)N(CCCN(C)C)c2c3cc(O)ccc3nc3c([N+](=O)[O-])ccc1c23`: the TGI in [1] was 5.47 µM; in test [2], 12.6 µM; in [3], 7 µM; in test [4], greater than 33 µM; in test [5] it was 22.2 µM; in test [6] it was 8.81 µM. In addition, the total growth inhibition concentration (TGI) is 6.7 µM in test [7], 5.56 µM in test [8], 10.8 µM in test [9] and 17.2 µM in test [10].

For `O=C1CN2C(c3ccccc3)=NN(c3ccc([N+](=O)[O-])cc3)C2(c2ccccc2)c2cc(Cl)ccc2N1CC1CC1` (configuration not stated), the total growth inhibition concentration (TGI) in test [1], in test [2], in test [3], in test [4], in [5] and in test [6] was greater than 100 µM each time. The TGI in test [7], in [8], in test [9] and in [10] was greater than 100 µM throughout.

As for `CC1CC[C@@]2(OC1)OC1C[C@H]3[C@@H]4CC[C@H]5CC(OC6OC(CO)C(OC7OC(CO)C(O)C(O)C7OC7OC(CO)C(O)C(O)C7O)C(O)C6O)CCC5(C)[C@H]4CCC3(C)C1[C@@H]2C` (some centres not stated), the concentration for total growth inhibition (TGI) in test [1] is 4.08 µM; in test [2], 20.3 µM; in test [3], 2.15 µM; in test [4], 9.01 µM; in [5], 12.5 µM; in [6], 3.54 µM. The total growth inhibition concentration (TGI) was 11.6 µM in test [7], 5.94 µM in test [8], 8.32 µM in [9] and 6.04 µM in [10].
